Assay results taken from US20180235870A1, “TRANSDERMAL FORMULATIONS FOR DELIVERY OF BERBERINE COMPOUNDS, AND THEIR USE IN THE TREATMENT OF BERBERINE-RESPONSIVE DISEASES AND CONDITIONS” (DELIVRA INC., priority 2015, published 2018).
“Also recorded” adds a separate entry of the source.

Tests used:
[1] = Solubility testing of berberine and dihydroberberine using various solvents; format: physicochemical
Protocol: Solubility was determined in a step-wise procedure that involved attempting to dissolve the berberine/DHB in the solvents at relatively high concentrations. […] Then the expected solvent was added to the berberine/DHB. The container was sonicated at RT or at 40C for 30 minutes. The following solvents were tested to dissolve the DHB. Dimethyl sulfoxide (Reagent Grade; […] Lot #STB[…]), and Glycerol tributyrate (Sigma T8626; Lot #BCBQ […]). […] The solubility was visually checked and state of solubility was recorded.

[2] = Stability of synthetic derivatives DHB and THB in solution (UV/VIS); format: physicochemical; details: for stability over time (oxidation to berberine): several solvents
Description: UV/VIS spectrometry is a useful tool for monitoring the conversion of DHB to berberine in solution. Several anti-oxidants and encapsulating agents were combined with DHB in solution to increase stability.

[3] = test system: PCSK9 expression in HEPG2 cells; test: Berberine signaling in HEPG2: PCSK9 western blot of supernatant; format: cell-based, human; details: 24 hours; for expression of PCSK9 in supernatant (western blot): 25 to 3.125 ug/ml, versus negative control
Protocol: HEPG2 cells were cultured in 24 well plates to confluence in DMEM supplemented with 10% FBS. After reaching confluence, cells were incubated overnight with 0.1% FBS OPTIMEM for serum starvation. After serum starvation the cells were incubated with berberine, DHB, or THB in 0.1% FBS OPTIMEM using the following dose course: 25 ug/ml, 12.5 ug/ml 6.25 ug/ml 3.125 ug/ml for 24 hours. Supernatant was collected after stimulation and western blotted as follows:
(1) Resolved on 12.5% gel.
(3) Blocked with 3% BSA TBST (4) Rabbit anti PCSK9 (Cayman chemicals cat 10007185) at 1/600 in TTBS (5) Wash 3×5 min with TTBS (6) HRP-Goat anti-Rabbit 1/1000 (Cayman chemicals) (7) Wash 3×5 min with TTBS (8) Detection with ECL
Proprotein convertase subtilisin/kexin type 9 (PCSK9) post-transcriptionally downregulates the low-density lipoprotein receptor (LDLR) by binding to the receptor's epidermal growth factor repeat A on the cell surface and shuttling the LDLR to the lysosomes for degradation. […] Previous reports indicate that berberine has lipid lowering effects in both animal models and human trials (Arrigo F. G., Cicero, L., Rovati C. et al., 2007). The signalling effects of berberine, DHB, and THB were evaluated using the human liver cell line HEPG2. PCSK9, an enzyme that acts in cholesterol homeostasis, is expressed in HEPG2 cells and these cells have previously been used as a model of dyslipidemia. PCSK9 binds to LDL receptor causing uptake of LDL and the LDL receptor and targets both molecules for degradation upon internalization. In the absence of PCSK9, LDL and LDL receptor are still internalized, however, LDL receptor is not degraded but instead recycled to the cell surface resulting in more efficient uptake of circulating LDL.

[4] = test system: male Zucker rat, a model of type-2 diabetes and metabolic disorder; test: Effect of berberine, metformin and simvastatin on body mass, lipid biomarkers, food and water intake, clinical chemistry (Example 18); format: in vivo, obese male Zucker fa/fa rats; details: Zucker rats, Days 0 to 28
Protocol: All in vivo animal husbandry, treatment regiments, and sample collections were completed by InterVivo. The study was completed using obese male Zucker fa/fa rats (Charles River) at 10 weeks of age. […] Shaving was performed under anaesthesia one day prior to initiation of test article administration. The area was further shaven, as needed, over the course of the dosing period to ensure accurate drug application and absorption. For dosing procedures, animals were restrained and the transdermal test articles applied in a uniform layer over the entire shaved area. The shaved administration area was cleaned daily with paper towel before the subsequent transdermal dose was administered. Animals receiving test articles via oral gavage were restrained, and a ball-tipped gavage needle (18G) attached to a syringe containing the dosing solution was first inserted into the mouth, and then into the stomach. To determine the appropriate depth of insertion of the needle, the position corresponding to the last rib was measured prior to insertion. […] Group A), oral administration of berberine (180 mg/kg/dose; […] Group C), and oral administration of the vehicle (Group D) (Table 19). […] Group F), or with orally-administered metformin (200 mg/kg/dose; Group G). […] On Day 28, the animals were dosed in the morning only, prior to euthanasia and tissue collection. Animal body weights were performed once weekly from Day −34 to −2 and daily from Day −1 to 28. Rats were weighed, and the scales were operated and maintained, according to standard operating procedures. Food and water consumption measurements were taken over a 24 hour period, once weekly, from Days 0 to 28. Blood was collected via tail nick on Day-1 to determine unfasted blood glucose level for group allocation. Whole blood was collected via the saphenous vein or other appropriate route on Days 0, 7, 14, 21 and 28 immediately prior to test article administration. […] On Day 28, subjects were anaesthetized with isoflurane, and whole blood was collected via cardiac puncture 2.5 hours (+/−5 minutes) following treatment administration on this day. […]

[5] = test system: male Zucker fa/fa rat, a model of type 2 diabetes and metabolic disorder; test: Efficacy of transdermal berberine alone and in combination with pharmaceuticals in a model of metabolic syndrome (Example 19); format: in vivo, obese male Zucker fa/fa rats; details: Zucker fa/fa rats
Protocol: Fourteen obese male Zucker fa/fa rats at 5 weeks of age were housed for five weeks to the age of 10 weeks. During these five weeks, body weight measurements were taken once a week and once daily health observations were conducted for all animals. […] On Day 28, serum and whole liver was collected. […] Food and water intake measurements were taken once a week during the study period of Day 0 to Day 28. […] A sufficient amount of test article was supplied and formulated. Test article product was administered at a dose of 3.6 g/kg twice a day (e.g. […] Berberine cream was weighed fresh daily at each AM and PM dosing to avoid desiccation of the test article. Daily PO and TD dosing of the test articles took place between the hours of 08:00 to 10:00 and 16:00 to 18:00 for 7 days a week between Day 0 to 27. […] The exact time of dosing (up to the minute) was recorded for each animal on the daily dosing sheets. […] Remaining dosing solutions were stored at 4° C. between dosing periods. […] The animals shaved underwemt gaseous anaesthetic according to SOP ROD28.01 to ensure accuracy and avoid undue stress of the animal. The area was further shaven as needed over the course of the dosing period to ensure accurate drug application and absorption. At dosing, the animals were restrained and the transdermal test articles were applied in a uniform layer over the entire shaved area. […] PTS3028).

[6] = Plasma concentrations of berberine, berberine glucuronide, simvastatin and simvastatin hydroxy acid in rats (Example 20); format: in vivo; details: rats (n=2); oral simvastatin 6 mg/kg/dose
[7] = averaged over the entire experiment

COc1ccc2c(c1OC)CN1CCc3cc4c(cc3C1=C2)OCO4 [DHB, dihydroberberine]
Dissolving Capability ([1]; Acetone, sonication 40 C.): 25.0 mg/mL | Dissolving Capability ([1]; Acetone, sonication RT): 12.5 mg/mL | Dissolving Capability ([1]; Dimethyl sulfoxide (DMSO), sonication 40 C.): 50.0 mg/mL | Dissolving Capability ([1]; Dimethyl sulfoxide (DMSO), sonication RT): 25.0 mg/mL | Dissolving Capability ([1]; Ethanol, sonication 40 C.): 2.5 mg/mL | Dissolving Capability ([1]; Ethanol, sonication RT): 1.0 mg/mL | Dissolving Capability ([1]; Glycerol tributyrate, sonication 40 C.): 75 to 250 mg/mL | Dissolving Capability ([1]; Glycerol tributyrate, sonication RT): 10 mg/mL | Dissolving Capability ([1]; Hexylene glycol, sonication 40 C.): 1.0 mg/mL | Dissolving Capability ([1]; Hexylene glycol, sonication RT): 0.5 mg/mL | Dissolving Capability ([1]; Isopropyl myristate, sonication 40 C.): 75 to 250 mg/mL | Dissolving Capability ([1]; Isopropyl myristate, sonication RT): 10 mg/mL | Dissolving Capability ([1]; Isosorbid-dimethyl ether 98%, sonication 40 C.): 250 mg/mL | Dissolving Capability ([1]; Isosorbid-dimethyl ether 98%, sonication 40 C., listed as Dihydroberberine): 250 mg/mL | Dissolving Capability ([1]; Isosorbid-dimethyl ether 98%, sonication RT): 25.0 mg/mL | Dissolving Capability ([1]; Mineral oil, sonication 40 C.): 4.0 mg/mL | Dissolving Capability ([1]; Mineral oil, sonication RT): 2.0 mg/mL | Dissolving Capability ([1]; Oleyl alcohol, sonication 40 C., listed as Dihydroberberine): 50 mg/mL | Dissolving Capability ([1]; Oleyl alcohol, sonication 40 C., listed as dihydroberberine): 50.0 mg/mL | Dissolving Capability ([1]; Oleyl alcohol, sonication RT): 12.5 mg/mL | Dissolving Capability ([1]; Propanediol, sonication 40 C.): 2.5 mg/mL | Dissolving Capability ([1]; Propanediol, sonication RT): 1.0 mg/mL | Dissolving Capability ([1]; Trivalin, sonication 40 C.): 5.0 mg/mL | Dissolving Capability ([1]; Trivalin, sonication RT): 2.5 mg/mL | Dissolving Capability ([1]; Water, sonication 40 C.): 1.0 mg/mL | Dissolving Capability ([1]; Water, sonication RT): 0.5 mg/mL | oxidation of DHB to berberine on addition of ascorbic acid or cyclodextrin ([2]; UV/VIS): significantly slowed | stability over time (oxidation to berberine) [2]: prone to oxidation to provide berberine after a short time | concentration down to which expression of PCSK9 was reduced [3]: 6.25 µg/mL | expression of PCSK9 in supernatant (western blot) [3]: down-regulate the expression of PCSK9; also recorded: reduce the expression of PCSK9

CN(C)C(=N)N=C(N)N [Metformin]
HbA1c (in words) [4]: largest reduction in HbA1c | rate of weight gain (grams/day) ([5]; BID, Day 0 to 28, n=2): 3.3 grams/day | overall triglyceride levels (mmol/L+/−SEM) ([5]; averaged for the entire experiment): 15.1 ± 0.4 mmol/L | overall HbA1c level change (mmol/mmol+/−SEM) [5, 7]: 34.3+/−0.4 mmol/mmol | overall average food intake (grams+/−SEM) [5, 7]: 33.4+/−0.7 grams | overall cholesterol level change (mmol/L+/−SEM) [5, 7]: 5.0 ± 0.4 mmol/L | overall average glucose change (%+/−SEM) ([5]; non-fasting glucose, averaged over the entire experiment): 5.9+/−5.9%

CCC(C)(C)C(=O)O[C@H]1C[C@@H](C)C=C2C=C[C@H](C)[C@H](CC[C@@H]3C[C@@H](O)CC(=O)O3)[C@H]21 [Simvastatin]
systemic simvastatin concentration [6]: 1.83 ng/mL

COc1ccc2c(c1OC)CN1CCc3cc4c(cc3C1C2)OCO4 (stereo not shown) [THB, tetrahydroberberine]
stability over time (oxidation to berberine) [2]: excellent stability in several solvents | expression of PCSK9 in supernatant (western blot) [3]: did not affect expression of PCSK9; also recorded: did not appear to reduce expression of PCSK9
